Eight compounds from US20260165323A1, “USE OF STROBILURIN TYPE COMPOUNDS FOR COMBATING PHYTOPATHOGENIC FUNGI CONTAINING AN AMINO ACID SUBSTITUTION F129L IN THE MITOCHONDRIAL CYTOCHROME B PROTEIN CONFERRING RESISTANCE TO QO […]” (priority 2022, published 2026) can be followed below.

What all share (assay type): in vivo
Assay [1] has as its system Phakopsora pachyrhizi containing the amino acid substitution F129L in the mitochondrial cytochrome b protein. Put plainly: Use Example 1: protective control of soybean rust on soybeans (PHAKPA P2). The following applies: inoculated 2 days after spraying, % diseased leaf area. How it is done:
(§1) The compound was dissolved in a mixture of acetone and/or dimethylsulfoxide and the wetting agent/emulsifier Wettol, which is based on ethoxylated alkylphenoles, in a ratio (volume) solvent-emulsifier of 99 to 1 to give a total volume of 5 ml. Subsequently, water was added to total volume of 100 ml. This stock solution was then diluted with the described solvent-emulsifier-water mixture to the final concentration given in the tables below.
Use Example 1. Protective Control of Soybean Rust on Soybeans Caused by Phakopsora pachyrhizi (PHAKPA P2)
(§2) Leaves of potted soybean seedlings were sprayed to run-off with the previously described spray solution, containing the concentration of active ingredient or their mixture as described below. The plants were allowed to air-dry. The trial plants were cultivated for 2 days in a greenhouse chamber at 23-27° C. and a relative humidity between 60 and 80%. Then the plants were inoculated with spores of Phakopsora pachyrhizi. The strain used contains the amino acid substitution F129L in the mitochondrial cytochrome b protein conferring resistance to Qo inhibitors. To ensure the success the artificial inoculation, the plants were transferred to a humid chamber with a relative humidity of about 95% and 20 to 24° C. for 24 hr. The trial plants were cultivated for up to 14 days in a greenhouse chamber at 23 to 27° C. and a relative humidity between 60 and 80%. The extent of fungal attack on the leaves was visually assessed as % diseased leaf area, the disease level of untreated controls was usually higher than 85%.

For assay [2] the test system is unchanged. Kind of assay: Use Example 2: protective control of soybean rust on soybeans (PHAKPA P6). The following applies: inoculated six days after spraying, % diseased leaf area. How it is done: as §1
Use Example 2. Protective Control of Soybean Rust on Soybeans Caused by Phakopsora Pachyrhizi (PHAKPA P6)
as §2, with “active ingredient as described” for “active ingredient or their mixture as described”, “cultivated for six days in” for “cultivated for 2 days in”, “95% and 23 to 27°” for “95% and 20 to 24°”, “23 to 27° C. for” for “20 to 24° C. for”

For assay [3], the system named is Puccinia recondita. Put plainly: Use Example 3: curative control of brown rust on wheat (PUCCRT K4). The following applies: % diseased leaf area. How it is done: as §1
Use Example 3. Curative Control of Brown Rust on Wheat Caused by Puccinia recondita (PUCCRT K4)
The first two developed leaves of potted wheat seedling were dusted with spores of Puccinia recondita. To ensure the success the artificial inoculation, the plants were transferred to a humid chamber without light and a relative humidity of 95 to 99% and 20 to 24° C. for 24 h. The next 3 days the plants were cultivated in a greenhouse chamber at 20 to 24° C. and a relative humidity between 65 and 70%. Then the plants were sprayed to run-off with previously described spray solution, containing the concentration of active ingredient or their mixture as described below. The plants were allowed to air-dry. Then the trial plants were cultivated for 5 to 7 days in a greenhouse chamber at 20 to 24° C. and a relative humidity between 65 and 70%. The extent of fungal attack on the leaves was visually assessed as % diseased leaf area, the disease level of untreated controls was usually between 80 and 100%.

Assay [4] relates to Puccinia recondita. Kind of assay: Use Example 4: preventative control of brown rust on wheat (PUCCRT P7). The following applies: inoculated seven days after spraying, % diseased leaf area. How it is done:
as §1
Use Example 4. Preventative Control of Brown Rust on Wheat Caused by Puccinia recondita (PUCCRT P7)
The first two developed leaves of potted wheat seedling were sprayed to run-off with previously described spray solution, containing the concentration of active ingredient or their mixture as described below. Seven days later the plants were dusted with spores of Puccinia recondita. To ensure the success of the artificial inoculation, the plants were transferred to a humid chamber without light and a relative humidity of 95 to 99% and 20 to 24° C. for 24 h. Then the trial plants were cultivated for 9 to 11 days in a greenhouse chamber at 20 to 24° C. and a relative humidity between 65 and 70%. The extent of fungal attack on the leaves was visually assessed as % diseased leaf area, the disease level of untreated controls was usually between 80 and 100%.

With `CO/C=C(/C(=O)OC)c1cccc(Cl)c1CO/N=C(\COC)c1cccc(C)c1` [compound 128], in assay [1], the “% PHAKPA (F129L) Disease level P2 at 4 ppm” value is given as 4% and the “% PHAKPA (F129L) Disease level P2 at 16 ppm” value was 0%. Further, in assay [2], the “% PHAKPA (F129L) Disease level P6 at 4 ppm” value was 4% and the “% PHAKPA (F129L) Disease level P6 at 16 ppm” value was 1%. Besides, the “% PUCCRT Disease level K4 at 4 ppm” value in assay [3] (4 ppm) is reported as 20%. The “% PUCCRT Disease level K4 at 16 ppm” value in assay [3] (16 ppm) was determined as 1%.

As to `COC/C(=N\OCc1c(Cl)cccc1/C(=N\OC)C(=O)OC)c1cccc(OC)c1` [compound 120], in assay [1], the “% PHAKPA (F129L) Disease level P2 at 4 ppm” value was determined as 67% and the “% PHAKPA (F129L) Disease level P2 at 16 ppm” value is 11%. Further, in assay [2], the “% PHAKPA (F129L) Disease level P6 at 4 ppm” value is listed as 81% and the “% PHAKPA (F129L) Disease level P6 at 16 ppm” value stood at 45%. In assay [4], the “% PUCCRT Disease level P7 at 4 ppm” value came out at 22% and the “% PUCCRT Disease level P7 at 16 ppm” value was 2%.

`CNC(=O)/C(=N/OC)c1cccc(Cl)c1CO/N=C(\COC)c1ccc(F)cc1Cl` [compound 94]: in assay [1], the “% PHAKPA (F129L) Disease level P2 at 4 ppm” value stood at 29% and the “% PHAKPA (F129L) Disease level P2 at 16 ppm” value is reported as 5%. For the same compound, in assay [2], the “% PHAKPA (F129L) Disease level P6 at 4 ppm” value worked out at 43% and the “% PHAKPA (F129L) Disease level P6 at 16 ppm” value is on record as 11%. In assay [4], the “% PUCCRT Disease level P7 at 4 ppm” value is 57% and the “% PUCCRT Disease level P7 at 16 ppm” value is reported as 26%.

Consider `CNC(=O)/C(=N/OC)c1cccc(Cl)c1CO/N=C(\COC)c1cccc(Cl)c1Cl` [compound 75], for which, in assay [1], the “% PHAKPA (F129L) Disease level P2 at 4 ppm” value is listed as 73% and the “% PHAKPA (F129L) Disease level P2 at 16 ppm” value was determined as 24%. Moreover, in assay [2], the “% PHAKPA (F129L) Disease level P6 at 4 ppm” value was 25% and the “% PHAKPA (F129L) Disease level P6 at 16 ppm” value stood at 11%. In assay [4], the “% PUCCRT Disease level P7 at 4 ppm” value came out at 67% and the “% PUCCRT Disease level P7 at 16 ppm” value came out at 33%.

For the compound `CNC(=O)/C(=N/OC)c1cccc(Cl)c1CO/N=C(\COC)c1ccccc1C` [compound 122], in assay [1], the “% PHAKPA (F129L) Disease level P2 at 4 ppm” value was determined as 82% and the “% PHAKPA (F129L) Disease level P2 at 16 ppm” value worked out at 20%. In assay [2], the “% PHAKPA (F129L) Disease level P6 at 4 ppm” value stood at 76% and the “% PHAKPA (F129L) Disease level P6 at 16 ppm” value is 30%. In assay [4], the “% PUCCRT Disease level P7 at 4 ppm” value came out at 45% and the “% PUCCRT Disease level P7 at 16 ppm” value worked out at 20%.

Regarding `CNC(=O)/C(=N/OC)c1cccc(Cl)c1CO/N=C(\COC)c1c(F)ccc(F)c1F` [compound 112], in assay [1], the “% PHAKPA (F129L) Disease level P2 at 4 ppm” value was 8% and the “% PHAKPA (F129L) Disease level P2 at 16 ppm” value is recorded as 0%. For the same compound, in assay [2], the “% PHAKPA (F129L) Disease level P6 at 4 ppm” value worked out at 21% and the “% PHAKPA (F129L) Disease level P6 at 16 ppm” value was 0%. Moreover, in assay [4], the “% PUCCRT Disease level P7 at 4 ppm” value is reported as 43% and the “% PUCCRT Disease level P7 at 16 ppm” value is 6%.

Regarding `COC/C(=N\OCc1c(Cl)cccc1/C(=N\OC)C(=O)OC)c1ccc(F)c(F)c1F` [compound 98], in assay [1], the “% PHAKPA (F129L) Disease level P2 at 4 ppm” value amounted to 72% and the “% PHAKPA (F129L) Disease level P2 at 16 ppm” value amounted to 15%. Besides, in assay [2], the “% PHAKPA (F129L) Disease level P6 at 4 ppm” value was 72% and the “% PHAKPA (F129L) Disease level P6 at 16 ppm” value stood at 31%. Further, in assay [4], the “% PUCCRT Disease level P7 at 4 ppm” value is reported as 50% and the “% PUCCRT Disease level P7 at 16 ppm” value was found to be 12%.

Regarding `CO/C=C(/C(=O)OC)c1cccc(Cl)c1CO/N=C(\COC)c1c(F)cc(Cl)cc1F` [compound 115], in assay [1], the “% PHAKPA (F129L) Disease level P2 at 4 ppm” value worked out at 8% and the “% PHAKPA (F129L) Disease level P2 at 16 ppm” value was 0%. In assay [2], the “% PHAKPA (F129L) Disease level P6 at 4 ppm” value worked out at 9% and the “% PHAKPA (F129L) Disease level P6 at 16 ppm” value turned out to be 1%. In addition, in assay [4], the “% PUCCRT Disease level P7 at 4 ppm” value was 57% and the “% PUCCRT Disease level P7 at 16 ppm” value came to 14%.
